Measurements published in patent EP0429304A2, “Pyridone-carboxylic acid derivatives and their use as veterinary medicines” (SHIONOGI SEIYAKU KABUSHIKI KAISHA trading under the name of …, priority 1989, dated 1991).
Read-outs that look alike come from different tables or passages of the source.

Legend:
[1] = test system: TS-resistant strain of MG; format: in vivo, chicken; settings: 10-days chicken, 3.0 x 10³ CFU/fowl; for Infectious index Left air sack + / Infectious index Left air sack ++ / Infectious index Left air sack +++ / Infectious index Left air sack - / Infectious index Right air sack + / Infectious index Right air sack ++ / Infectious index Right air sack +++ / Infectious index Right air sack -: count of fowl
[2] = test system: Escherichia coli (E.coli) JC-2; assay: In vitro sensitivity test (agar dilution method); format: cell-based; settings: 37°C, 20 to 24 hours
Procedure: (§1) Survey of the sensitivity of the compound (I) to various strains of microorganisms was performed by a liquid dilution method […] an agar dilution method, in which the bacteria used were of animal origin and included the following strains (15 strains out of 11 bacteria): Chicken-origin strain: Mycoplasma gallisepticum (MG), Mycoplasma synoviae (MS), Hemophilus paragallinarum (H.pg) and Escherichia coli (E.coli); Pig-origin strain: Mycoplasma hyopneumoniae (Mh), Hemophilus pleuropneumonia (H.pp) and Bordetella bronchiseptica (B.br); Fish-origin strain: Pasteurella piscicida (P.pis) and Streptococcus sp (Str.sp); others: Escherichia coli (E. coli), Salmonella typhimurium (S.typhi) and Staphylococcus aureus (S.au).
(§2) Of these bacteria, the strains belonging to MG, MS and Mh were cultured at 37°C for 7 days by a liquid dilution method, of which the culture medium comprised: 12 % horse-serum added "PPLO" (agar manufactured by Difco) medium for MG; 12 % pig-serum, 0.01 % βNAD (nicotinamide adenine dinucleotide) added Frey medium for MS; 0.5 % lactoalbumin added Hank's solution, 10 % horse-serum, 0.5 % yeast extract (25 %) for Mh, and the agar dilution method was applied to the strains belonging to H.pg, H.pp, S.typhi, E.coli, S.au and B.br. Specifically, the H.pg strain was cultured in a 5 % chicken-serum added chicken bouillon medium and the H.pp strain was cultured in a heart infusion agar added with 10 % sheep defibered blood and 0.05 % βNAD. In case of the H.pg and P.pp strains, observation was made after cultivation at 37°C for 20 hours under 10 % CO₂. Mueller Hinton agar (Difco) was used for the strains belonging to S.typhi, E.coli, S.au and B.br, and observation was made after cultivation at 37°C for 20 to 24 hours. P.pis and Str.sp, both being of fish-origin, were respectively cultured at 25°C for 40 to 48 hours in a 1.5 % NaCl added heart infusion agar and in a sensitive disk medium.

[3] = test system: Staphylococcus aureus (S.au) 209P; assay: In vitro sensitivity test (agar dilution method); format: cell-based; settings: 37°C, 20 to 24 hours
Procedure: as §1, §2

[4] = test system: Hemophilus pleuropneumonia (H.pp) M-1; assay: In vitro sensitivity test (agar dilution method); format: cell-based; settings: 37°C, 20 hours, 10 % CO₂
Procedure: as §1, §2

[5] = test system: Salmonella typhimurium (S.typhi) 13311; assay: In vitro sensitivity test (agar dilution method); format: cell-based; settings: 37°C, 20 to 24 hours
Procedure: as §1, §2

[6] = test system: Bordetella bronchiseptica (B.br) ABU-1; assay: In vitro sensitivity test (agar dilution method); format: cell-based; settings: 37°C, 20 to 24 hours
Procedure: as §1, §2

[7] = test system: Hemophilus paragallinarum (H.pg) S-1; assay: In vitro sensitivity test (agar dilution method); format: cell-based
Procedure: as §1, §2

[8] = test system: Escherichia coli (E.coli) E-17, chicken-origin strain isolated from the field; assay: In vitro sensitivity test (agar dilution method); format: cell-based; settings: 37°C, 20 to 24 hours
Procedure: as §1, §2

[9] = test system: Hemophilus paragallinarum (H.pg) 221; assay: In vitro sensitivity test (agar dilution method); format: cell-based
Procedure: as §1, §2

[10] = test system: Mycoplasma hyopneumoniae (Mh) ST-11; assay: In vitro sensitivity test (liquid dilution method); format: cell-based; settings: 37°C, 7 days
Procedure: as §1, §2

[11] = test system: Mycoplasma gallisepticum (MG) S6; assay: In vitro sensitivity test (liquid dilution method); format: cell-based; settings: 37°C, 7 days
Procedure: as §1, §2

[12] = test system: Mycoplasma gallisepticum (MG) T-7-T, TS-resistant strain isolated from the field; assay: In vitro sensitivity test (liquid dilution method); format: cell-based; settings: 37°C, 7 days
Procedure: as §1, §2

[13] = test system: Pasteurella piscicida (P.pis) No. 2; assay: In vitro sensitivity test; format: cell-based; settings: 25°C, 40 to 48 hours
Procedure: as §1, §2

[14] = test system: Streptococcus sp (Str.sp) SNO6119; assay: In vitro sensitivity test; format: cell-based; settings: 25°C, 40 to 48 hours
Procedure: as §1, §2

[15] = agar dilution, 37°C, 20 hours, 10 % CO₂

| Compound | Infectious index Left air sack + ([1]; oral 3.13 mg/kg) | Infectious index Left air sack ++ ([1]; oral 3.13 mg/kg) | Infectious index Left air sack +++ ([1]; oral 3.13 mg/kg) | Infectious index Left air sack - ([1]; oral 3.13 mg/kg) | Infectious index Right air sack + ([1]; oral 3.13 mg/kg) | Infectious index Right air sack ++ ([1]; oral 3.13 mg/kg) | Infectious index Right air sack +++ ([1]; oral 3.13 mg/kg) | Infectious index Right air sack - ([1]; oral 3.13 mg/kg) | Infectious index Left air sack + ([1]; oral 6.25 mg/kg) | Infectious index Left air sack ++ ([1]; oral 6.25 mg/kg) | Infectious index Left air sack +++ ([1]; oral 6.25 mg/kg) | Infectious index Left air sack - ([1]; oral 6.25 mg/kg) | Infectious index Right air sack + ([1]; oral 6.25 mg/kg) | Infectious index Right air sack ++ ([1]; oral 6.25 mg/kg) | Infectious index Right air sack +++ ([1]; oral 6.25 mg/kg) | Infectious index Right air sack - ([1]; oral 6.25 mg/kg) | Infectious index Left air sack + ([1]; oral 12.5 mg/kg) | Infectious index Left air sack ++ ([1]; oral 12.5 mg/kg) | Infectious index Left air sack +++ ([1]; oral 12.5 mg/kg) | Infectious index Left air sack - ([1]; oral 12.5 mg/kg) | also measured |
| --- | --- | --- | --- | --- | --- | --- | --- | --- | --- | --- | --- | --- | --- | --- | --- | --- | --- | --- | --- | --- | --- |
| CN[C@@H]1CCC[C@H]2[C@@H]1CCN2c1c(F)cc2c(=O)c(C(=O)O)cn(C3CC3)c2c1F (relative stereo) [I-3] | 0 | 1 | 0 | 4 | 0 | 3 | 0 | 2 | 0 | 0 | 0 | 5 | 2 | 3 | 0 | 0 | 1 | 0 | 0 | 4 | Infectious index Right air sack + ([1]; oral 12.5 mg/kg): 2; Infectious index Right air sack ++ ([1]; oral 12.5 mg/kg): 1; Infectious index Right air sack +++ ([1]; oral 12.5 mg/kg): 0; Infectious index Right air sack - ([1]; oral 12.5 mg/kg): 2; Number of fowl having air sack lesions ([1]; oral 3.13 mg/kg): 3; Number of fowl having air sack lesions ([1]; oral 6.25 mg/kg): 5; Number of fowl having air sack lesions ([1]; oral 12.5 mg/kg): 3; In vitro Sensitivity Test E.coli JC-2 [2]: 0.1 µg/mL; In vitro Sensitivity Test S.au 209P [3]: 0.2 µg/mL; In vitro Sensitivity Test H.pp M-1 [4]: 0.2 µg/mL; In vitro Sensitivity Test S.typhi 13311 [5]: 0.1 µg/mL; In vitro Sensitivity Test B.br ABU-1 [6]: 6.25 µg/mL; In vitro Sensitivity Test H.pg S-1 [7]: 1.56 µg/mL; In vitro Sensitivity Test E.coli E-17 [8]: 0.1 µg/ml; In vitro Sensitivity Test H.pg 221 [9]: 1.56 µg/mL; In vitro Sensitivity Test Mh ST-11 [10]: 0.05 µg/mL; In vitro Sensitivity Test MG S6 [11]: 0.025 µg/mL; In vitro Sensitivity Test MG T-7-T [12]: 0.05 µg/mL; In vitro Sensitivity Test P.pis No. 2 [13]: 1.56 µg/mL; In vitro Sensitivity Test Str.sp SNO6119 [14]: 0.78 µg/mL |
| CN[C@H]1CCC[C@H]2CN(c3c(F)cc4c(=O)c(C(=O)O)cn(C5CC5)c4c3F)CC[C@H]21.Cl (relative stereo) [I-7, 1-cyclopropyl-6,8-difluoro-7-[(1R*,6R*,7S*)-7-methylamino-3-azabicyclo[4.4.0]decan-3-yl]-1,4-dihydro-4-oxo-3-quinolinecarboxylic acid hydrochloride] | 0 | 0 | 0 | 5 | 0 | 3 | 1 | 1 | 1 | 0 | 0 | 5 | 1 | 3 | 1 | 0 | 0 | 0 | 0 | 5 | Infectious index Right air sack + ([1]; oral 12.5 mg/kg): 2; Infectious index Right air sack ++ ([1]; oral 12.5 mg/kg): 1; Infectious index Right air sack +++ ([1]; oral 12.5 mg/kg): 2; Infectious index Right air sack - ([1]; oral 12.5 mg/kg): 0; Number of fowl having air sack lesions ([1]; oral 3.13 mg/kg): 4; Number of fowl having air sack lesions ([1]; oral 6.25 mg/kg): 5; Number of fowl having air sack lesions ([1]; oral 12.5 mg/kg): 5; In vitro Sensitivity Test E.coli JC-2 [2]: 0.39 µg/mL; In vitro Sensitivity Test S.au 209P [3]: 0.78 µg/mL; In vitro Sensitivity Test H.pp M-1 [4]: 0.78 µg/mL; In vitro Sensitivity Test S.typhi 13311 [5]: 0.2 µg/mL; In vitro Sensitivity Test B.br ABU-1 [6]: 6.25 µg/mL; In vitro Sensitivity Test H.pg S-1 [7, 15]: >3.13 µg/mL; In vitro Sensitivity Test E.coli E-17 [8]: 0.39 µg/ml; In vitro Sensitivity Test H.pg 221 [9, 15]: >3.13 µg/mL; In vitro Sensitivity Test Mh ST-11 [10]: 0.1 µg/mL; In vitro Sensitivity Test MG S6 [11]: 0.05 µg/mL; In vitro Sensitivity Test MG T-7-T [12]: 0.2 µg/mL; In vitro Sensitivity Test P.pis No. 2 [13]: 6.25 µg/mL; In vitro Sensitivity Test Str.sp SNO6119 [14]: 3.13 µg/mL |
